Results from patent publication US12234232B2, “Aromatic heterocyclic compound with kinase inhibitory activity” (SHANGHAI ENNOVABIO PHARMACEUTICALS CO., LTD., priority 2018, dated 2025).

Assays:
Format in all cases: biochemical
JAK1 = JAK1 (Homo sapiens, UniProt P23458); assay: In vitro JAK1 kinase activity assay (HTRF kinEASE TK); set-up: purchased Thermo Fisher; conditions: 1.1 μM ATP, 60 minutes, room temperature; read-out: IC50 JAK1 (enzyme activity assay)
Method: (§1) Recombinant human JAK1 protein was purchased from Thermo Fisher. JAK2 and JAK3 proteins were purchased from Carna Biosciences. HTRF kinEASE TK kit was purchased from Cisbio Bioassays. BioTek microplate reader Synergy Neo 2 was used to read the plate.
(§2) The test compounds were of 4-fold serial dilution, and the final concentration ranged from 10 μM to 0.04 nM in duplicates for each concentration. The concentration of DMSO in the reaction system was 1%.
The reaction included 0.5 ng/μl JAK 1 protein kinase, 1 μM TK Substrate-biotin peptide substrate, 1.1 μM ATP, 1× enzymatic buffer, 5 mM MgCl2, 1 mM MnCl2, 1 mM DTT, and 2.5 nM SEB. The detection plate was White Proxiplate 384-Plus plate (PerkinElmer), and the mixture (10 μl) was reacted at room temperature for 60 minutes.
(§3) Reaction detection: 10 μl of detection reagent was added to the reaction plate containing final concentration of 0.125 μM of SA-XL665 and 5 μl 1×TK-Antibody. The mixture was incubated overnight at room temperature. The plate was read using Synergy Neo 2.
(§4) Data analysis: 665/620 Ratio was converted into inhibition rate (%) through the following formula: inhibition rate (%)=(Ratiomax−Ratiotest)/(Ratiomax−Ratiomin)×100%. Ratiomax is a positive control without detection compound, Ratiomin is a negative control without detection compound and kinase, Ratiotest is the detection value of each concentration of different compounds. 4 parameter curve fitting was performed to measure the IC50 (nM) values. The details are shown in, Table 1.

JAK3 protein = molecular target: T1, JAK3 protein (Homo sapiens, UniProt P52333); assay: In vitro JAK3 kinase activity assay (HTRF kinEASE TK); conditions: 0.75 μM ATP, 25 minutes, room temperature; read-out: IC50 JAK3 (enzyme activity assay)
T1 construct: purchased Carna Biosciences
T1 sequence (P52333 1-1124): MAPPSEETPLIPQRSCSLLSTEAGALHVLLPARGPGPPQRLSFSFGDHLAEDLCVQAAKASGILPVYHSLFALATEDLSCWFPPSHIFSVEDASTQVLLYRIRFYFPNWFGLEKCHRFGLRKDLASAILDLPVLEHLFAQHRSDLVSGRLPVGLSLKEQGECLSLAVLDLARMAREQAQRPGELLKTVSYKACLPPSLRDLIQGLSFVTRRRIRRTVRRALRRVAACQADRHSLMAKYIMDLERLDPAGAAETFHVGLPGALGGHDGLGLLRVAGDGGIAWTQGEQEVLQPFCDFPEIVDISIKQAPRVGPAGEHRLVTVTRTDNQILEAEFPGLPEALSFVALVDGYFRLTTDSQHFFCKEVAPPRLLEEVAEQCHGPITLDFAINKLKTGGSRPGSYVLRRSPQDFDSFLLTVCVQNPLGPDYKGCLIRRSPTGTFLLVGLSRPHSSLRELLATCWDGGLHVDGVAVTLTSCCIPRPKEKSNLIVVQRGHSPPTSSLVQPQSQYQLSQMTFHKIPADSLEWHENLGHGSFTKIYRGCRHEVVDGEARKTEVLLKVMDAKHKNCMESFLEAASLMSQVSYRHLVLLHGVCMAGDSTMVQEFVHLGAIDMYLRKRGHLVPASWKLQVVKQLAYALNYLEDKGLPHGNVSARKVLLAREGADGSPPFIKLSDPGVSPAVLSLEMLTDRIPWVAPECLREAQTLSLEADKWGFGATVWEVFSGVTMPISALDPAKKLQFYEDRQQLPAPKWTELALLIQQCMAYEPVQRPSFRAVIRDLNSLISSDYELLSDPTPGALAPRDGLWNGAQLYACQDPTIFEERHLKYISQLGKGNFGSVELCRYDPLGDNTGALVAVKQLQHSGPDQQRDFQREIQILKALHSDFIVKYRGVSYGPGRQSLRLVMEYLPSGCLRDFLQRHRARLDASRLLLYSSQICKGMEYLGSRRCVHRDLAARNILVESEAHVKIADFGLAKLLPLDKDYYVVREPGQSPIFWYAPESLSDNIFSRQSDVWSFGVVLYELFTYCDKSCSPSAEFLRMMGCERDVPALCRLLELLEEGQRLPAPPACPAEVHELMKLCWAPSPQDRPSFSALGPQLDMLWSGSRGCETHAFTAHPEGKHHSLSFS
Method: as §1, §2
(§5) The reaction included 0.004 ng/gi JAK 3 protein kinase, 1 μM TK Substrate-biotin peptide substrate, 0.75 μM ATP, 1× enzymatic buffer, 5 mM MgCl2, and 1 mM DTT. The detection plate was White Proxiplate 384-Plus plate (PerkinElmer), and the mixture (10 μl) was reacted at room temperature for 25 minutes.
as §3, §4

JAK2 = JAK2 (Homo sapiens, UniProt O60674); assay: In vitro JAK2 kinase activity assay (HTRF kinEASE TK); set-up: purchased Carna Biosciences; conditions: 2.7 μM ATP, 25 minutes, room temperature; read-out: IC50 JAK2 (enzyme activity assay)
Method: as §1, §2
as §5, with “included 0.001 ng/μl” for “included 0.004 ng/gi”, “JAK 2” for “JAK 3”, “substrate, 2.7” for “substrate, 0.75”
as §3, §4

Sequence of JAK2 (O60674 whole entry): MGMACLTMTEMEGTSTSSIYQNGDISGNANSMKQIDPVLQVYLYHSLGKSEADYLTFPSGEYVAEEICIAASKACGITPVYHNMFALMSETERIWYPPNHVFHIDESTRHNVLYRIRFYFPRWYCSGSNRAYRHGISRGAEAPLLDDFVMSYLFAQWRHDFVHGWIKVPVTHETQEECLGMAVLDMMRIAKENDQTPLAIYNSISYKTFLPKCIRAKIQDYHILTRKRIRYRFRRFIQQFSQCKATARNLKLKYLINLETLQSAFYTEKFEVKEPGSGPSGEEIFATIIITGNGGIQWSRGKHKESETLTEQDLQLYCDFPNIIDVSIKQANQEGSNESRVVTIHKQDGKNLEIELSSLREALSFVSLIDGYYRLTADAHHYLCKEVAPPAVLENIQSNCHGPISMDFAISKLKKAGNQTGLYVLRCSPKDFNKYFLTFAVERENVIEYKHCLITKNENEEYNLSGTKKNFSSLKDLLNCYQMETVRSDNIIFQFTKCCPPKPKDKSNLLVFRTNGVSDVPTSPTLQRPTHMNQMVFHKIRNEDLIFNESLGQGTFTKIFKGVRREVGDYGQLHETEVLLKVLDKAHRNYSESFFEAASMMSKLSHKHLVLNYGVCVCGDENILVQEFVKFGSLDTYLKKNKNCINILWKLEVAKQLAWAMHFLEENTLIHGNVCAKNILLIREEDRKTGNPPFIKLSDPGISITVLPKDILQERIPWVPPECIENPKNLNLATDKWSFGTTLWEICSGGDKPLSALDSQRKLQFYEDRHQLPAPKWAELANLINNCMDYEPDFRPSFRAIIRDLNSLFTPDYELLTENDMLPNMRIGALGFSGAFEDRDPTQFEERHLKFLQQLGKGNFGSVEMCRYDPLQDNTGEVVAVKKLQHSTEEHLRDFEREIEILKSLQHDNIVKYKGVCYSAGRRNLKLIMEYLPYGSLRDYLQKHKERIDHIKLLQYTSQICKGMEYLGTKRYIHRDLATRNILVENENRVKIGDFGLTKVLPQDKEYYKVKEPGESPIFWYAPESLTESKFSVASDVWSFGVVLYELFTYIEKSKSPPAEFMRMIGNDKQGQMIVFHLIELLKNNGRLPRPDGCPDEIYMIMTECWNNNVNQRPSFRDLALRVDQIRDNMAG
Sequence of JAK1 (P23458 whole entry): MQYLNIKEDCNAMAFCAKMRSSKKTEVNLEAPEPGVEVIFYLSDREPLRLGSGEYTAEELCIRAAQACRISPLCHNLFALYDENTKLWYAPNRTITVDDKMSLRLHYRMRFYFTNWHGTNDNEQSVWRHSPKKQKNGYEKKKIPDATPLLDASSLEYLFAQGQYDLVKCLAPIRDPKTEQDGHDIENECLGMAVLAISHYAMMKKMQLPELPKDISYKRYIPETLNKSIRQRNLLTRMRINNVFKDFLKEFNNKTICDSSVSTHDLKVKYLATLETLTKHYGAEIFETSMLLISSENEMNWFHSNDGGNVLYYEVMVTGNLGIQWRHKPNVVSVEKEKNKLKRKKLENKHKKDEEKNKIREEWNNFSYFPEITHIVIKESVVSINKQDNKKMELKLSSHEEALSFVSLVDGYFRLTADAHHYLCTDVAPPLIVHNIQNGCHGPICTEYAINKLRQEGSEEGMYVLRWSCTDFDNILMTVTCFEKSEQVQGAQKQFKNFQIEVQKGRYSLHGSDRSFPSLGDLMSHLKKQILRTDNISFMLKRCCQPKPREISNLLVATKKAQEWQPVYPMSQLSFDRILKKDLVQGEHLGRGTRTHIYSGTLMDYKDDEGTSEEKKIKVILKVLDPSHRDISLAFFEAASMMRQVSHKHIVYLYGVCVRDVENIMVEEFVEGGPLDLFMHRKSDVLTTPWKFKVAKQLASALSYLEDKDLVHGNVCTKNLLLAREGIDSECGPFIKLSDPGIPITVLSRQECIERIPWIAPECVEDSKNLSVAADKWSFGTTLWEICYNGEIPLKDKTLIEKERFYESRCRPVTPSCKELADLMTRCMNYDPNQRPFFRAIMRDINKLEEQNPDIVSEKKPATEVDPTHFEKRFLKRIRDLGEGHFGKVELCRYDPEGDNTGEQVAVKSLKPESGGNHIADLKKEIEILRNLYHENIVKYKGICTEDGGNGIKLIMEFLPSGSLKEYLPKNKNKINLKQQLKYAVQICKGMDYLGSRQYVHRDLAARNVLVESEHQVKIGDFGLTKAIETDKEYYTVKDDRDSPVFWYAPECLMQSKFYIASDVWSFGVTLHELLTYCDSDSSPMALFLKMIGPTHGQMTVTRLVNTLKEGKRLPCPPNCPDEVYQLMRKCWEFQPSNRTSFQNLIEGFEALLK

| IC50 (JAK1) [nM] | IC50 (JAK3 protein) [nM] | IC50 (JAK2) [nM] | SMILES |
| --- | --- | --- | --- |
| 5 to 50 | 500 to 10000 | 100 to 10000 | CCC(C(=O)Nc1nccc2c(-c3nc(Nc4cccc(S(C)(=O)=O)c4F)ncc3C)c[nH]c12)N1CCN(C)CC1 (stereo in doubt) [Example 20, (S)—N-(3-(2-((2-Fluoro-3-(methylsulfonyl)phenyl)amino)-5-methylpyrimidin-4-yl)-1H-pyrrolo[2,3-c]pyridin-7-yl)-2-(4-methylpiperazin-1-yl)butanamide] |
| > 50 | 500 to 10000 | 100 to 10000 | COc1nn(C)cc1Nc1nccc(-c2c[nH]c3c(NC(=O)[C@@H](C)N4CCN(C)CC4)nccc23)n1 [Example 1, (R)—N-(3-(2-((3-Methoxy-1-methyl-1H-pyrazol-4-yl)amino)pyrimidin-4-yl)-1H-pyrrolo[2,3-c]pyridin-7-yl)-2-(4-methylpiperazin-1-yl)propionamide] |
| 5 to 50 | 500 to 10000 | 100 to 10000 | COc1nn(C)cc1Nc1ncc(C)c(-c2c[nH]c3c(NC(=O)C(C)(C)N4CCN(C)CC4)nccc23)n1 [Example 11] |
| < 5 | < 500 | 100 to 10000 | CCC(C(=O)Nc1nccc2c(-c3nc(Nc4cn(C)nc4OC)ncc3F)c[nH]c12)N1CCN(C)CC1 (stereo not drawn) [Example 17, N-(3-(5-Fluoro-2-((3-methoxy-1-methyl-1H-pyrazol-4-yl)amino)pyrimidin-4-yl)-1H-pyrrole[2,3-c]pyridin-7-yl)-2-(4-methylpiperazin-1-yl)butanamide] |
| < 5 | < 500 | 100 to 10000 | CCC(C(=O)Nc1nccc2c(-c3nc(Nc4cn(C)nc4OC)ncc3C)c[nH]c12)N1CCN(C2COC2)CC1 (stereo not drawn) [Example 18, N-(3-(2-((3-Methoxy-1-methyl-1H-pyrazol-4-yl)amino)-5-methylpyrimidin-4-yl)-1H-pyrrolo[2,3-c]pyridin-7-yl)-2-(4-(oxbutan-3-yl)piperazin-1-yl)butanamide] |
| > 50 | 500 to 10000 | 100 to 10000 | CC[C@@H](C(=O)Nc1nccc2c(-c3nc(Nc4cccc(S(C)(=O)=O)c4F)ncc3C)c[nH]c12)N1CC2CCC(C1)N2C [Example 26, (S)—N-(3-(2-((2-Fluoro-3-(methylsulfonyl)phenyl)amino)-5-methylpyrimidin-4-yl)-1H-pyrrolo[2,3-c]pyridin-7-yl)-2-(8-methyl-3,8-diazabicyclo[3.2.1]octane-3-yl)butanamide] |
| > 50 | 500 to 10000 | 100 to 10000 | CCC(C(=O)Nc1ncnc2c(-c3nc(Nc4cccc(S(C)(=O)=O)c4F)ncc3C)c[nH]c12)N1CCN(C)CC1 (stereo not drawn) [Example 29, N-(7-(2-((2-Fluoro-3-(methylsulfonyl)phenyl)amino)-5-methylpyrimidin-4-yl)-5H-pyrrolo[3,2-d]pyrimidin-4-yl)-2-(4-methylpiperazin-1-yl)butanamide] |
